In ChEMBL document CHEMBL1130278, “Synthesis and structure-activity relationships of 3,7-dimethyl-1-propargylxanthine derivatives, A2A-selective adenosine receptor antagonists” (J Med Chem, 1997):

How the values were obtained:
[1] = target: T1, Adenosine receptor A2a (Rattus norvegicus, UniProt P30543)
Description: Ability to inhibit binding of [3H]-CGS- 21680 to adenosine A2A receptor in rat brain striatal membranes.

[2] = target: T2, Adenosine receptor A1 (Rattus norvegicus, UniProt P25099); assay: Ability to inhibit binding of [3H]CHA to adenosine A1 receptor in rat brain cortical membranes.; format: cell membranes, Membrane
T2 sequence (P25099 whole entry): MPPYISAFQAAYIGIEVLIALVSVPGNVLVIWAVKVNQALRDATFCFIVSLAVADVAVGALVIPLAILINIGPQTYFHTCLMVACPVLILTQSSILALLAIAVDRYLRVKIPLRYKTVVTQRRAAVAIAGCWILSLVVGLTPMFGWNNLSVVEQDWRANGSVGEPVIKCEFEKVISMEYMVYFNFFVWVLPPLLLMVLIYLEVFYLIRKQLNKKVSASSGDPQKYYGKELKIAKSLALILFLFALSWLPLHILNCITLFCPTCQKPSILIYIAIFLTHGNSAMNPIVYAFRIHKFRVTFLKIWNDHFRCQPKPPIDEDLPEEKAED

[3] = target: T3, Adenosine receptor A3 (Homo sapiens, UniProt P0DMS8); assay: Binding affinity for human Adenosine A3 receptor at 10 uM; IA = Inactive
T3 sequence (P0DMS8 whole entry): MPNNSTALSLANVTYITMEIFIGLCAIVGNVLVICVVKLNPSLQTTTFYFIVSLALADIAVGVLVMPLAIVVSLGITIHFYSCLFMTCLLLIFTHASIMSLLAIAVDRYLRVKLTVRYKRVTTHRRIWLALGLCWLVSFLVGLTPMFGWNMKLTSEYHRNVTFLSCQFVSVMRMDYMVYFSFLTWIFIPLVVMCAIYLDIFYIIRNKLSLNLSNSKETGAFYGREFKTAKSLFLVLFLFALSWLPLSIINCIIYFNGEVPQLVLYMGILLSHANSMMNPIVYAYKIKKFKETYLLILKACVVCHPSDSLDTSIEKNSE

[4] = target: T4, Adenosine receptor A2b (Homo sapiens, UniProt P29275); assay: Binding affinity for human Adenosine A2B receptor at 10 uM; IA = Inactive
T4 sequence (P29275 whole entry): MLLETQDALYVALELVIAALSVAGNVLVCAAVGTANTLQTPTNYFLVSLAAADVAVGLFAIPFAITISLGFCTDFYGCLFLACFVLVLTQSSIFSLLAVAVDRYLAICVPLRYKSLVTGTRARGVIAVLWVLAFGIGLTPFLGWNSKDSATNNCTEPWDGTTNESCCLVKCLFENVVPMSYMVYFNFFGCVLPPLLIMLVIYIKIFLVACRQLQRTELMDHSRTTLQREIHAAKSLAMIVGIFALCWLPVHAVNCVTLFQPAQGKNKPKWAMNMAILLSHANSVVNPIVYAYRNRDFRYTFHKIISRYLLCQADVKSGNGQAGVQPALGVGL

[5] = target: T2, Adenosine receptor A1; assay: Ability to inhibit binding of [3H]R-PIA to Adenosine A1 receptor in rat brain cortical membranes; format: cell membranes, Membrane
[6] = target: T1, Adenosine receptor A2a; remark: listed apart in the source
Description: Ability to inhibit binding of [3H]NECA to Adenosine A2A receptor in rat brain striatal membranes

[7] = target: T5, Adenosine receptor A3 (Rattus norvegicus, UniProt P28647); assay: Inhibitory activity against rat adenosine A3 receptor; inactive up to 10 uM concentration; IA = Inactive
T5 sequence (P28647 whole entry): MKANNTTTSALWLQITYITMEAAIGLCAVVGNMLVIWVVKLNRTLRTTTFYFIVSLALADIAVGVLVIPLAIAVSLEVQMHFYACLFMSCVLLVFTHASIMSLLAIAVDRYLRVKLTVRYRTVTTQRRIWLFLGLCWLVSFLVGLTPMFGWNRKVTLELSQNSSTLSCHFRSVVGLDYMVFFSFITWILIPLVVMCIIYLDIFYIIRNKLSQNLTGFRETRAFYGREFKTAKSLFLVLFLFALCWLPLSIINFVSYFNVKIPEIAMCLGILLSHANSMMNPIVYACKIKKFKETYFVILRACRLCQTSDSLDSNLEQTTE

[8] = target: T6, Adenosine receptor A1 (Rattus norvegicus) (UniProt P25099); assay: Inhibition of [3H]CHA binding to Adenosine A1 receptor of rat brain cortical membranes; format: cell membranes; conditions: Membrane, concentration not given here
T6 sequence (whole entry): T2 sequence (P25099 whole entry)

T1 sequence (P30543 whole entry): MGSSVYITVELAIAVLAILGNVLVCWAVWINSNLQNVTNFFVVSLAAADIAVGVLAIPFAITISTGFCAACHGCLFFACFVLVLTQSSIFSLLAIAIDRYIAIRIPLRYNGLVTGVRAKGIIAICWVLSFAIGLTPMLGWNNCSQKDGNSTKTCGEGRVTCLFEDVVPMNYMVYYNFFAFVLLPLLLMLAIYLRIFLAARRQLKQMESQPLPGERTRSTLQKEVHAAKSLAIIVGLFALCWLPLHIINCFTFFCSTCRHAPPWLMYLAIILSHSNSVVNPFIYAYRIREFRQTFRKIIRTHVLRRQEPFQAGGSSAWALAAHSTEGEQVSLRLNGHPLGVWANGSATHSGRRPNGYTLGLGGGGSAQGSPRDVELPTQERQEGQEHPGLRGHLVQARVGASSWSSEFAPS

Row | SMILES | Ki [1] | Ki [2] | also measured
1 | CC(C)Cn1c(=O)n(C)c(=O)c2c1nc(-c1ccccc1)n2C | 14000 nM | 4400 nM | 
2 | C#CCn1c(=O)c2c(nc(C3CCCCC3)n2C)n(C)c1=O | 4500 nM | 2800 nM | 
3 | CCCn1c(=O)c2c(nc(/C=C/c3ccc(OC)c(OC)c3)n2C)n(CCC)c1=O |  | 260 nM | 
4 | C#CCn1c(=O)c2c(nc(/C=C/c3cccs3)n2C)n(C)c1=O | 340 nM | 4100 nM | 
5 | C#CCn1c(=O)c2c(ncn2C)n(C)c1=O | 8600 nM | 12000 nM | 
6 | C#CCn1c(=O)c2c(nc(-c3cccs3)n2C)n(C)c1=O | 1800 nM | 950 nM | 
7 | C#CCn1c(=O)c2[nH]c(/C=C/c3cccc(Cl)c3)nc2n(C)c1=O |  |  | Ki [5]: 250 nM; Ki [6]: 410 nM
8 | Cn1c(=O)c2c(nc(-c3ccccc3)n2C)n(C)c1=O | 19000 nM | 33000 nM | Ki [6]: 25000 nM
9 | C#CCn1c(=O)c2c(nc(/C=C/c3ccc4c(c3)OCO4)n2C)n(C)c1=O | 35 nM | 1500 nM | 
10 | Cn1c(=O)c2c(nc(/C=C/c3cccc(Cl)c3)n2C)n(C)c1=O |  |  | Ki [7]: Not Active; inhibition [8]: 17%
11 | C#CCn1c(=O)c2c(nc(/C=C/c3ccccc3)n2C)n(C)c1=O | 27 nM | 1100 nM | Ki [5]: 2700 nM; Ki [6]: 140 nM
12 | COc1ccc(/C=C/c2nc3c(c(=O)n(C)c(=O)n3C)n2C)cc1OC | 18 nM | 9600 nM | 
13 | C#CCn1c(=O)c2c(nc(/C=C/c3ccc(OC)c(OC)c3)n2C)n(C)c1=O | 15 nM | 2500 nM | 
14 | C#CCn1c(=O)c2c(nc(/C=C/c3ccsc3)n2C)n(C)c1=O | 24 nM | 750 nM | 
15 | C#CCn1c(=O)[nH]c2[nH]c(/C=C/c3ccccc3)nc2c1=O | 310 nM | 1300 nM | Ki [5]: 2100 nM; Ki [6]: 1900 nM
16 | C#CCn1c(=O)c2[nH]cnc2n(C)c1=O |  |  | Ki [6]: 4800 nM
17 | C#CCn1c(=O)c2[nH]c(/C=C/c3ccc4c(c3)OCO4)nc2n(C)c1=O | 170 nM | 840 nM | 

The next lines start with results.

Row | Ki [1] | Ki [2] | SMILES | also measured
18 | 8.2 nM | 1200 nM | C#CCn1c(=O)c2c(nc(/C=C/c3cccc(Br)c3)n2C)n(C)c1=O | Ki [3]: Not Active; Ki [4]: Not Active
19 | 63 nM | 9200 nM | C=CCn1c(=O)c2c(nc(/C=C/c3ccccc3)n2C)n(C)c1=O | 
20 | 560 nM | 180 nM | C#CCn1c(=O)[nH]c2nc(-c3cccs3)[nH]c2c1=O | Ki [5]: 120 nM; Ki [6]: 5100 nM
21 | 46 nM | 83 nM | C#CCn1c(=O)c2[nH]c(/C=C/c3cccc(Cl)c3)nc2n(CC(C)C)c1=O | 
22 | 31 nM | 540 nM | CCCn1c(=O)c2c(nc(/C=C/c3cccc(Cl)c3)n2C)n(C)c1=O | 
23 | 15 nM | 240 nM | C#CCn1c(=O)c2c(nc(/C=C/c3cccc(Cl)c3)n2C)n(CC(C)C)c1=O | 
24 | 5.1 nM | 102 nM | C#CCn1c(=O)c2c(nc(/C=C/c3cccc(Cl)c3)n2C)n(CCC)c1=O | 
25 | 3500 nM | 2800 nM | C#CCn1c(-c2ccccc2)nc2c1c(=O)n(C)c(=O)n2CC(C)C | 
26 | 880 nM | 860 nM | C#CCn1c(=O)c2[nH]cnc2n(Cc2ccccc2)c1=O | 
27 | 3300 nM | 3200 nM | C#CCn1c(=O)c2c(nc(-c3ccccc3)n2C)n(C)c1=O | Ki [6]: 6400 nM
28 | 61 nM | 200 nM | C#CCn1c(=O)c2c(nc(/C=C/c3cccc(Cl)c3)n2CC#C)n(C)c1=O | 
29 | 250 nM | 1900 nM | C#CCn1c(=O)c2c(nc(/C=C/c3ccco3)n2C)n(C)c1=O | 
30 | 68 nM | 2300 nM | C#CCn1c(=O)c2c(nc(/C=C/c3cccc(Cl)c3)n2C)n(Cc2ccccc2)c1=O | 
31 | 13 nM | 1300 nM | C#CCn1c(=O)c2c(nc(/C=C/c3cccc(Cl)c3)n2C)n(C)c1=O | Ki [5]: 2500 nM; Ki [6]: 47 nM
